# Measurements as given in PubChem BioAssay (NCI).
#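 Following 48 hours of exposure in 96-well plates, responses at five concentrations were used to interpolate endpoints linearly. The concentration for full growth arrest is given as TGI.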
# Experiments:
# Test in all cases: NCI-60 cell line screen, 48 h
# UACC-62 melanoma = test system: UACC-62 melanoma
# HCT-15 colon = test system: HCT-15 colon
# HL-60(TB) leukemia = test system: HL-60(TB) leukemia
# COLO 205 colon = test system: COLO 205 colon
# OVCAR-5 ovarian = test system: OVCAR-5 ovarian
# NCI-H23 lung = test system: NCI-H23 lung
# MDA-MB-435 = test system: MDA-MB-435
# UACC-257 melanoma = test system: UACC-257 melanoma
# BT-549 breast = test system: BT-549 breast
# SF-295 CNS = test system: SF-295 CNS
# SNB-19 CNS = test system: SNB-19 CNS
# NCI-H226 lung = test system: NCI-H226 lung
# MALME-3M melanoma = test system: MALME-3M melanoma
Structure (SMILES),TGI (UACC-62 melanoma),TGI (HCT-15 colon),TGI (HL-60(TB) leukemia),TGI (COLO 205 colon),TGI (OVCAR-5 ovarian),TGI (NCI-H23 lung),TGI (MDA-MB-435),TGI (UACC-257 melanoma),TGI (BT-549 breast),TGI (SF-295 CNS),TGI (SNB-19 CNS),TGI (NCI-H226 lung),TGI (MALME-3M melanoma)
CC(=O)O[C@H]1[C@@H](OC2CCCC2(c2ccccc2)c2ccccc2)O[N+]([O-])=C[C@@]12COCc1cc3c(cc12)OCO3 (stereo partly drawn),25.9 µM,67 µM,> 100 µM,> 58.2 µM,> 51.5 µM,52.1 µM,14.3 µM,> 100 µM,> 86.2 µM,> 25.9 µM,49 µM,15.8 µM,–
O=c1oc2cccnc2n1CCN1CCN(c2ccc(Oc3ccccc3)cc2)CC1,–,> 100 µM,86.4 µM,–,> 100 µM,> 100 µM,> 100 µM,> 100 µM,–,> 100 µM,> 100 µM,–,> 100 µM
CC1CC(=O)C(CC(=O)O)C1C(C(=O)C(=O)Nc1c(C#N)cccc1[N+](=O)[O-])[N+](=O)[O-] (stereo not drawn),> 100 µM,> 100 µM,> 100 µM,> 100 µM,> 100 µM,> 100 µM,–,> 100 µM,–,> 100 µM,> 100 µM,> 100 µM,> 100 µM
O=C(O)C(Cc1cnc[nH]1)N=Cc1nc(-c2ccccc2)oc1O (stereo not drawn),> 100 µM,> 100 µM,> 100 µM,> 100 µM,> 100 µM,> 100 µM,–,> 100 µM,–,> 100 µM,> 100 µM,> 100 µM,> 100 µM
CCCC(=O)/C=C/S/C=C/C(=O)CCC,29.8 µM,8.22 µM,–,–,9.69 µM,7.7 µM,18.6 µM,–,–,66.3 µM,72.3 µM,17.9 µM,25.4 µM
Nc1ccc(C(=O)NN2C(=O)C(Cl)C2c2ccc([N+](=O)[O-])cc2)cc1 (stereo not drawn),24.7 µM,23.6 µM,4.65 µM,29.1 µM,41.6 µM,35.6 µM,–,31.2 µM,–,28.3 µM,26 µM,34.9 µM,25 µM
O/N=C1/CCCCCC1NO (stereo not drawn),> 100 µM,> 100 µM,–,> 100 µM,> 100 µM,> 100 µM,> 100 µM,> 100 µM,–,> 100 µM,> 100 µM,> 100 µM,> 100 µM
O=C1N(CN2CCOCC2)CN(CN2CCOCC2)C(=O)N1Cc1ccccc1,49.4 µM,84.8 µM,–,36.1 µM,> 100 µM,38.9 µM,38 µM,48.6 µM,57 µM,> 100 µM,> 100 µM,> 100 µM,29.5 µM
C[C@@H]1OC(=O)C[C@H]2CC(=O)N(CCC3CN(S(=O)(=O)C(F)(F)F)c4ccc(Cc5ccc6c(c5)C(CCN5C[C@H]7[C@@H](CC(=O)O[C@H]7C)CC5=O)CN6S(=O)(=O)C(F)(F)F)cc43)C[C@@H]21 (stereo partly drawn),> 100 µM,> 100 µM,–,> 100 µM,> 100 µM,> 100 µM,> 100 µM,> 100 µM,> 100 µM,> 100 µM,> 100 µM,> 100 µM,> 100 µM
CN(C)CS/C(N)=N\C(O)C(Cl)(Cl)Cl (stereo not drawn),> 100 µM,> 100 µM,–,–,> 100 µM,> 100 µM,> 100 µM,> 100 µM,> 100 µM,> 100 µM,> 100 µM,> 100 µM,> 100 µM
O=c1[nH]c(=O)n(C2CC(O)C(CO)O2)cc1C#Cc1cc(C(F)(F)F)cc(C(F)(F)F)c1 (stereo not drawn),> 31.6 µM,> 100 µM,> 100 µM,> 42.7 µM,> 100 µM,> 89.3 µM,–,> 100 µM,–,> 100 µM,> 100 µM,> 100 µM,> 100 µM
COc1cc(C2c3[nH]c4ccc(F)cc4c3C[C@H]3COC(=O)N23)cc(OC)c1O (stereo partly drawn),32.6 µM,25.2 µM,38.1 µM,23.7 µM,49.2 µM,18.5 µM,–,> 100 µM,> 100 µM,53.8 µM,> 100 µM,32.3 µM,55.7 µM
CC(=O)N1C(C(=O)NNc2ccccc2)CSC1c1ccccc1 (stereo not drawn),61.8 µM,> 100 µM,–,> 100 µM,> 100 µM,> 100 µM,> 100 µM,> 100 µM,> 100 µM,> 100 µM,> 100 µM,> 100 µM,> 100 µM
O=C(Nc1ccccc1)Nn1c(-c2cccs2)nc2ccc(I)cc2c1=O,> 100 µM,> 100 µM,21.8 µM,53.4 µM,> 100 µM,> 100 µM,43.3 µM,65.9 µM,39 µM,98.5 µM,> 100 µM,> 100 µM,–
O=C1SC(c2ccccc2)(c2ccccc2)c2ccccc21,> 100 µM,> 100 µM,> 100 µM,> 100 µM,–,> 100 µM,–,> 100 µM,–,> 100 µM,> 100 µM,> 100 µM,> 100 µM
C=CCOC(=O)CCCCCCCCCCCCCCCOC(=O)c1c(CCC[C@@H](C)O[Si](C)(C)C(C)(C)C)nc(=O)n2c1CC[C@H]2CC1(CC/C=C\[C@H](CC)O[Si](C(C)C)(C(C)C)C(C)C)OCCO1,> 100 µM,> 100 µM,–,> 100 µM,> 100 µM,> 100 µM,> 100 µM,> 100 µM,> 100 µM,> 100 µM,> 100 µM,> 100 µM,> 100 µM
CC(C)C(Sc1nc(-c2ccccc2)c(-c2ccccc2)[nH]1)C(=O)N/N=C/c1ccc([N+](=O)[O-])cc1 (stereo not drawn),31.5 µM,36.5 µM,33.5 µM,24.9 µM,44.8 µM,55.6 µM,–,28.8 µM,–,33.9 µM,41.7 µM,40.3 µM,30 µM
CC1C2(C)OC(=N)C(C#N)(C(c3ccco3)O2)C1(C#N)C#N (stereo not drawn),36.8 µM,25 µM,48.3 µM,27.7 µM,83.6 µM,93.6 µM,–,51.9 µM,> 100 µM,> 100 µM,> 100 µM,> 100 µM,88.7 µM
Fc1ccc(NCn2nc(COc3ccccc3Cl)n(/N=C/c3ccc(-c4ccc(Cl)cc4Cl)o3)c2=S)cc1Cl,–,> 100 µM,48.9 µM,–,> 100 µM,> 100 µM,> 100 µM,> 100 µM,–,> 100 µM,–,> 100 µM,–

Structure (SMILES),TGI (UACC-62 melanoma),TGI (HCT-15 colon),TGI (HL-60(TB) leukemia),TGI (COLO 205 colon),TGI (OVCAR-5 ovarian),TGI (NCI-H23 lung),TGI (MDA-MB-435),TGI (UACC-257 melanoma),TGI (BT-549 breast),TGI (SF-295 CNS),TGI (SNB-19 CNS),TGI (NCI-H226 lung),TGI (MALME-3M melanoma)
CC(=O)OC1(C#N)CC2OC1C1C2N1C(=O)OC(C)(C)C (stereo not drawn),> 100 µM,> 100 µM,> 100 µM,> 100 µM,> 100 µM,> 100 µM,–,–,–,–,> 100 µM,> 100 µM,> 100 µM
c1cc2cc(c1)CN1CCNCCN(CCNCC1)Cc1cccc(c1)CN1CCNCCN(CCNCC1)C2,> 100 µM,> 100 µM,–,> 100 µM,> 100 µM,> 100 µM,> 100 µM,> 100 µM,> 100 µM,> 100 µM,> 100 µM,–,> 100 µM
NC(CCCCN=Cc1nc(-c2ccccc2)oc1O)C(=O)O (stereo not drawn),> 100 µM,> 100 µM,> 100 µM,> 100 µM,> 100 µM,> 100 µM,–,> 100 µM,–,> 100 µM,> 100 µM,> 100 µM,> 100 µM
O=c1oc2cc(O)ccc2cc1-c1nc2ccccc2s1,41.7 µM,> 100 µM,55.6 µM,11 µM,> 100 µM,61.2 µM,90.1 µM,58.2 µM,51 µM,89.3 µM,> 100 µM,–,–
COc1ccccc1-c1nc2ccccc2c(=O)[nH]1,> 100 µM,> 100 µM,–,> 100 µM,> 100 µM,> 100 µM,> 100 µM,> 100 µM,> 100 µM,> 100 µM,> 100 µM,> 100 µM,> 100 µM
CC1(C)O[C@H]2[C@@H]3N=C(c4ccccc4)O[C@@H]3C=C[C@H]2O1,> 100 µM,> 100 µM,> 100 µM,> 100 µM,> 100 µM,> 100 µM,> 100 µM,> 100 µM,> 100 µM,> 100 µM,> 100 µM,> 100 µM,–
O=C1/C(=C/c2ccc(Cl)cc2)N=C(c2ccccc2)N1C1Nc2cc3c(cc2S1)NC(N1C(=O)/C(=C/c2ccc(Cl)cc2)N=C1c1ccccc1)S3 (stereo not drawn),–,> 100 µM,2.47 µM,–,> 100 µM,> 100 µM,> 100 µM,> 100 µM,–,> 100 µM,–,> 100 µM,–
Cc1ccc([N+](=O)[O-])cc1NC(=O)C(=O)Cc1cc(=O)oc2cc(O)ccc12,> 100 µM,> 100 µM,> 100 µM,> 100 µM,> 100 µM,> 100 µM,–,> 100 µM,–,> 100 µM,> 100 µM,> 100 µM,> 100 µM
O=c1[nH]c(=O)n(C2OC(CO)C(O)C2O)cc1OCCc1ccccc1 (stereo not drawn),> 100 µM,> 100 µM,> 100 µM,> 100 µM,> 100 µM,> 100 µM,> 100 µM,> 100 µM,–,> 100 µM,> 100 µM,> 100 µM,> 100 µM
CCCN1CN(c2ccccc2)C2(CCN(CCCC(=O)c3ccc(F)cc3)CC2)C1=O,31.3 µM,16.9 µM,40.2 µM,0.348 µM,20.2 µM,17.3 µM,23.5 µM,6.09 µM,–,24.8 µM,34.7 µM,22.3 µM,30.1 µM
Cn1c(=O)c2c(ncn2CCSS(=O)(=O)O)n(C)c1=O,> 100 µM,> 100 µM,–,> 100 µM,> 100 µM,> 100 µM,> 100 µM,> 100 µM,> 100 µM,> 100 µM,> 100 µM,> 100 µM,> 100 µM
COC(=O)c1cc(-c2ccc(-c3ccc(O)cc3)cc2)cc(-c2ccc(-c3ccc(O)cc3)cc2)c1,–,20.8 µM,–,31 µM,29.1 µM,21 µM,24.9 µM,33.3 µM,26.6 µM,20.2 µM,32.8 µM,32.6 µM,–
CC(C)[Si](OCC1CC(C[C@H]2CC(C[C@H]3C[C@@H](CO[Si](C(C)C)(C(C)C)C(C)C)OC(C)(C)O3)OC(C)(C)O2)OC(C)(C)O1)(C(C)C)C(C)C (stereo partly drawn),> 100 µM,–,> 100 µM,> 100 µM,> 100 µM,> 100 µM,–,> 100 µM,–,> 100 µM,> 100 µM,> 100 µM,> 100 µM
CC(C)c1ccc2c(c1)C=C1OC(=O)[C@]3(C)CCC[C@@]2(C)C13 (stereo partly drawn),> 100 µM,> 100 µM,> 100 µM,> 100 µM,–,> 100 µM,> 100 µM,> 100 µM,> 100 µM,> 100 µM,> 100 µM,> 100 µM,–
Cc1cc(NS(=O)(=O)c2ccc(NC(=O)c3cccc4cc5ccccc5nc34)cc2)no1,48.5 µM,35.7 µM,–,53.4 µM,57.3 µM,39.3 µM,–,87.6 µM,–,59.1 µM,19.3 µM,–,31.9 µM
COP(=O)(OC)C(O)/C=C(\Cl)c1ccc(Cl)cc1 (stereo not drawn),> 100 µM,> 100 µM,> 100 µM,> 100 µM,> 100 µM,50.8 µM,> 100 µM,84.6 µM,–,> 100 µM,> 100 µM,> 100 µM,> 100 µM
CNC(=O)c1n[nH]n(Cc2ccccc2)c1=S,> 100 µM,> 100 µM,–,> 100 µM,> 100 µM,> 100 µM,> 100 µM,> 100 µM,> 100 µM,> 100 µM,> 100 µM,> 100 µM,–
CCN(CC)CCNc1ccc2ncn3c4c(OC)cccc4c(=O)c1c23,25.3 µM,19.2 µM,–,16.5 µM,–,24.5 µM,20.7 µM,69.2 µM,–,25.1 µM,46.3 µM,20.8 µM,21.4 µM
